# Read-outs that look alike come from different tables or passages of the source.
# Assays:
# [1] = test system: B16F10 mouse melanoma cells; assay: B16F10 IFNγ-induced cellular growth inhibition assay; type: cell-based; conditions: Mus musculus, B16-F10, 33 μM compound
# Summary of the method: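 Live-cell imaging of confluence every 6 h over 5 days at 37 °C tracked growth of mouse B16F10 melanoma cells seeded overnight at 500/well. Semi-log compound series (final 100–0.001 μM, 0.1% DMSO) ran in both arms, ±IFNγ at 0.5 ng/mL final; inhibition taken relative to DMSO plus IFNγ when IFNγ-free DMSO wells passed 95% confluence.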
# [2] = target: T1, His tagged PTPN2 (TC45) protein (Homo sapiens, UniProt P17706); assay: Mobility shift assay (MSA) for potency of PTPN2 inhibitors; type: biochemical; conditions: read-out: PTPN2 MSA IC50
# T1 construct: made in house
# T1 sequence (P17706 with tags, fused parts or gaps isoform P17706-2): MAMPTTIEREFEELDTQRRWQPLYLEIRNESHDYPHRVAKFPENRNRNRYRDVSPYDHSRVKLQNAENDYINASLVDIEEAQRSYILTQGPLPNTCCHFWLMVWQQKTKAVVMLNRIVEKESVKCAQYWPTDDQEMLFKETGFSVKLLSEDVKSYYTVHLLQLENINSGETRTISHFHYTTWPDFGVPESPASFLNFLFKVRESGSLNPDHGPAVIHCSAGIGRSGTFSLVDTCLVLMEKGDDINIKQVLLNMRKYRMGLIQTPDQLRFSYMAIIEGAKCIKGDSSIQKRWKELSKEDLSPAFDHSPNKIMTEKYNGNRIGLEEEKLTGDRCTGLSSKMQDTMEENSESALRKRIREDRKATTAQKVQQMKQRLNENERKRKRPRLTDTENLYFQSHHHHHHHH
# Summary of the method: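 IC50 values were derived from % inhibition of substrate conversion, measured by microfluidic mobility shift (ex 488/em 530) after quenching. The fluorescent phosphotyrosine insulin-receptor peptide ([…]) reacted for 10 min at room temperature with 0.5 nM His-tagged TC45 PTPN2 that had been preincubated 10 min with compound (12 points, 1:3). Buffer was HEPES pH 7.5 with EGTA, EDTA, Tween 20 and DTT.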
# [3] = test system: Pan T cells isolated from C57BL6 splenocytes; assay: T cell function assay (IFNγ and TNFα in supernatants, MSD V-plex); type: cell-based, mouse; conditions: 30 μM compound, 3 days, supernatant
# Method: (§1) Pan T cells were isolated from C57BL6 splenocytes using a MACS Pan T cell isolation kit II (Miltenyi Biotec, Auburn, Calif.) according to the manufacturer's instructions. Isolated T cells (200,000 cells/well in a 96 well flat-bottom plate) were cultured in RPMI 1640 supplemented with 10% FBS, […] 2-mercatoethanol, 100 U/mL penicillin, and 100 μg/mL streptomycin, and incubated with the indicated concentration of compound or DMSO in duplicates. After 1 hour, mouse T cell activator CD3/CD28 Dynabeads (ThermoFisher Scientific, Waltham, Mass.) were added at a 1:5 beads to cells ratio to stimulate the T cells for 2 or 3 days as outlined below. T cells with or without compound were incubated in the absence of T cell activator beads (media only) as control.
# After 3 days of stimulation, supernatants were collected and IFNγ and TNFα in supernatants were assessed using an MSD V-plex assay (Meso Scale Discovery, Rockville, Md.).
# [4] = test system: Pan T cells isolated from C57BL6 splenocytes; assay: T cell activation assay (flow cytometry, CD25/CD69 on CD8 T cells); type: cell-based, mouse; conditions: for % CD25 within CD8+ / % CD69 within CD8+ / CD25 MFI / CD69 MFI: 30 μM compound, 2 days
# Method: as §1
# After 2 days of stimulation, activation status of T cells was assessed by flow cytometry. T cells were first subjected to Zombie Violet™ Fixable Viability dye (BioLegend, San Diego, Calif.) for dead cell exclusion, washed and then stained with BUV805 labeled anti-CD8, APC-R700 labeled anti-CD25 (both from BD Biosciences, San Jose, Calif.) and PE labeled anti-CD69 (BioLegend, San Diego, Calif.) antibodies. After staining, cells were fixed with 2% paraformaldehyde and acquired on a BD LSRFortessa™ X-20 flow cytometer (BD Biosciences, San Jose, Calif.) using BD FACSDiva™ software. Data was analyzed using FlowJo V10 (Flow Jo LLC, Ashland, Oreg.). Dead cells were excluded and frequencies of activated CD8 T cells was reported as the frequency of CD25+ or CD69+ cells within the CD8+ population. The expression level of CD25 and CD69 indicates the activation status of cells on a per cell basis and was evaluated by the mean fluorescence intensities (MFI) of CD25 and CD69.
# [5] = target: T2, His tagged full-length PTP1B protein (Homo sapiens, UniProt P18031); assay: Mobility shift assay (MSA) for potency of PTP1B inhibitors; type: biochemical
# T2 construct: made in house
# T2 sequence (P18031 with tags, fused parts or gaps): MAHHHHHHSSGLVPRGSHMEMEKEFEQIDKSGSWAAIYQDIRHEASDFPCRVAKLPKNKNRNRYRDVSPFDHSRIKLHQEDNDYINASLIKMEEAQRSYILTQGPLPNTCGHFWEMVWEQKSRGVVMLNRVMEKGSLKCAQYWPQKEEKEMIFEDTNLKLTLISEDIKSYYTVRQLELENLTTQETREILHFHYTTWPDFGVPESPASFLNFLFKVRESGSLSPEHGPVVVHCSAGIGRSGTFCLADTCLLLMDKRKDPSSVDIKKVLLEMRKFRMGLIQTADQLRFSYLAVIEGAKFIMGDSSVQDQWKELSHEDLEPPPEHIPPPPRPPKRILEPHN
# Method: The enzymatic assay used to determine activity is a mobility shift assay using a LabChip EZ Reader by Caliper Life Sciences. The enzymatic reaction was carried out in assay buffer (50 mM HEPES pH 7.5, 1 mM EGTA, 10 mM EDTA, 0.01% Tween® 20, and 2 mM DTT). […] The enzyme (at 0.5 nM) was incubated with compound for 10 minutes at room temperature. […] The % inhibition was then used to calculate the IC50 values.
# [6] = +0.5 ng/mL IFNγ, relative to DMSO control, read-out: % B16F10 growth inhibition (+0.5 ng/mL IFNγ) @ 33 μM
# [7] = no IFNγ, read-out: % B16F10 growth inhibition (no IFNγ) @ 33 μM
# [8] = anti-CD3/anti-CD28 Dynabeads (1:5 beads:cells)
Compound,IC50 [5],"inhibition at 33 µM [1, 6]","inhibition at 33 µM [1, 7]",IC50 [2],also measured
"O=C1CN(c2c(O)cc3ccc(OC(F)F)cc3c2F)S(=O)(=O)N1 [Compound 260, 5-[7-(difluoromethoxy)-1-fluoro-3-hydroxynaphthalen-2-yl]-1λ^6,2,5-thiadiazolidine-1,1,3-trione]",,25 to 59%,< 25%,1 to 10 nM,"IFNγ [3, 8]: 752 ng/mL; TNFα [3, 8]: 207 ng/mL; IFNγ ([3]; no TCR stimulation): 3.8 ng/mL; TNFα ([3]; no TCR stimulation): 2.1 ng/mL; % CD25 within CD8+ [4, 8]: 39.60%; % CD69 within CD8+ [4, 8]: 61.65%; CD25 MFI [4, 8]: 1085; CD69 MFI [4, 8]: 464.5; % CD25 within CD8+ ([4]; no TCR stimulation): 0.29%; % CD69 within CD8+ ([4]; no TCR stimulation): 0.17%; CD25 MFI ([4]; no TCR stimulation): 28.3; CD69 MFI ([4]; no TCR stimulation): 10.2; T cell activation and T cell function ([4]; with TCR stimulation): increased both T cell activation and T cell function"
"CC(C)CC(=O)Nc1ccc2cc(O)c(N3CC(=O)NS3(=O)=O)c(F)c2c1 [Compound 157, N-[8-fluoro-6-hydroxy-7-(1,1,4-trioxo-1λ^6,2,5-thiadiazolidin-2-yl)naphthalen-2-yl]-3-methylbutanamide]",10 to 100 nM,60 to 90%,< 25%,1 to 10 nM,
"O=C1CN(c2c(O)cc3ccc(NC4CCN(S(=O)(=O)C5CC5)C4)cc3c2F)S(=O)(=O)N1 (stereo not shown) [Compound 306, 5-(7-{[1-(cyclopropanesulfonyl)pyrrolidin-3-yl]amino}-1-fluoro-3-hydroxynaphthalen-2-yl)-1λ^6,2,5-thiadiazolidine-1,1,3-trione]",10 to 100 nM,60 to 90%,< 25%,1 to 10 nM,
"O=C1CN(c2c(O)cc3ccc(OCC4CCCO4)cc3c2F)S(=O)(=O)N1 (stereo not shown) [Compound 254, 5-{1-fluoro-3-hydroxy-7-[(oxolan-2-yl)methoxy]naphthalen-2-yl}-1λ^6,2,5-thiadiazolidine-1,1,3-trione]",> 100 nM,60 to 90%,< 25%,1 to 10 nM,
"CN(C)CCOc1ccc2cc(O)c(N3CC(=O)NS3(=O)=O)c(F)c2c1 [Compound 131, 5-{7-[2-(dimethylamino)ethoxy]-1-fluoro-3-hydroxynaphthalen-2-yl}-1λ^6,2,5-thiadiazolidine-1,1,3-trione]",10 to 100 nM,> 90%,< 25%,1 to 10 nM,
"O=C1CN(c2c(O)cc3ccc(OCC4CCCOC4)cc3c2F)S(=O)(=O)N1 (stereo not shown) [Compound 271, 5-{1-fluoro-3-hydroxy-7-[(oxan-3-yl)methoxy]naphthalen-2-yl}-1λ^6,2,5-thiadiazolidine-1,1,3-trione]",> 100 nM,60 to 90%,< 25%,< 1 nM,
"O=C1CN(c2c(O)cc3ccc(C4CCOC4)cc3c2F)S(=O)(=O)N1 (stereo not shown) [Compound 255, 5-[1-fluoro-3-hydroxy-7-(oxolan-3-yl)naphthalen-2-yl]-1λ^6,2,5-thiadiazolidine-1,1,3-trione]",> 100 nM,60 to 90%,< 25%,1 to 10 nM,
"O=C1CN(c2c(O)cc3ccc(C4=CCOC4)cc3c2F)S(=O)(=O)N1 [Compound 263, 5-[7-(2,5-dihydrofuran-3-yl)-1-fluoro-3-hydroxynaphthalen-2-yl]-1λ^6,2,5-thiadiazolidine-1,1,3-trione]",> 100 nM,60 to 90%,< 25%,< 1 nM,
"O=C1CN(c2c(O)cc3ccc(CC4CCCN(S(=O)(=O)C5CC5)C4)cc3c2F)S(=O)(=O)N1 (stereo not shown) [Compound 259, 5-(7-{[1-(cyclopropanesulfonyl)piperidin-3-yl]methyl}-1-fluoro-3-hydroxynaphthalen-2-yl)-1λ^6,2,5-thiadiazolidine-1,1,3-trione]",1 to 10 nM,< 25%,< 25%,1 to 10 nM,

# The next lines start with results.
IC50 [5],Compound,"inhibition at 33 µM [1, 6]","inhibition at 33 µM [1, 7]",IC50 [2],also measured
< 1 nM,"O=C1CN(c2c(O)cc3ccc(OCCC4CC4(F)F)cc3c2F)S(=O)(=O)N1 (stereo not shown) [Compound 192, 5-{7-[2-(2,2-difluorocyclopropyl)ethoxy]-1-fluoro-3-hydroxynaphthalen-2-yl}-1λ^6,2,5-thiadiazolidine-1,1,3-trione]",60 to 90%,< 25%,< 1 nM,
< 1 nM,"O=C1CN(c2c(O)cc3ccc(OCCNS(=O)(=O)C4COC4)cc3c2F)S(=O)(=O)N1 [Compound 298, N-(2-{[8-fluoro-6-hydroxy-7-(1,1,4-trioxo-1λ^6,2,5-thiadiazolidin-2-yl)naphthalen-2-yl]oxy}ethyl)oxetane-3-sulfonamide]",> 90%,< 25%,< 1 nM,
1 to 10 nM,"CC[C@H]1C[C@@H]1COc1ccc2cc(O)c(N3CC(=O)NS3(=O)=O)c(F)c2c1 (racemic) [Compound 218, 5-(7-{[rac-(1R,2R)-2-ethylcyclopropyl]methoxy}-1-fluoro-3-hydroxynaphthalen-2-yl)-1λ^6,2,5-thiadiazolidine-1,1,3-trione]",25 to 59%,< 25%,1 to 10 nM,
1 to 10 nM,"O=C1CN(c2c(O)cc3ccc(OCC4CC4(F)F)cc3c2F)S(=O)(=O)N1 (stereo not shown) [Compound 210, 5-{7-[(2,2-difluorocyclopropyl)methoxy]-1-fluoro-3-hydroxynaphthalen-2-yl}-1λ^6,2,5-thiadiazolidine-1,1,3-trione]",> 90%,< 25%,< 1 nM,

# Reference: US20210009542A1 (Calico Life Sciences LLC, priority 2018, published 2021)
